Results: patent US4622312A, “Growth hormone releasing factor analogs” (Hoffmann-La Roche Inc., priority 1984, dated 1986)
No end group written: not given here.

Columns and labels:
[1] = test system: rat pituitary cells in tissue culture; assay: stimulation of growth hormone production in rat pituitary cells in tissue culture (RIA for rat growth hormone); format: cell-based
Method: Biological activity of the synthetic GRF(1-44)NH2 was identical to the natural GRF(1-44)NH2 which was isolated from a human pancreatic tumor of an individual suffering from acromegaly (Salk Institute standard hGRF--NH2 (NL-A-10)). The assay for biological activity, which is based on the ability to stimulate production of growth hormone in rat pituitary cells in tissue culture, was performed in the following manner.
Pituitaries from 30-40 male Sprague-Dawley rats (175 g) were removed aseptically after decapitation. The anterior lobes were collected, washed 3 times in sterile Hepes buffer (0.025M) (pH 7.35) and dispersed at 37° C. in 20-30 ml Hepes buffer (pH 7.35) containing collagenase (4 mg per ml) and Dispase (Protease grade II, 2 mg per ml). After gentle 100-110-min. vortexing and trituration by Pasteur pipette, the dispersed cells were separated by centrifugation (150×g, 4 min) and re-suspended in Hepes buffer containing neuraminidase (8 μg/ml), and 200 µg/ml ethylenedinitrisotetraacetic acid (EDTA) disodium salt pH 7.35, for 10 min. The cells were washed twice with plating medium and plated on multiwell-plates (1.5×10^5 cells per ml) using the following defined medium: F-12/DMEM/(6:3:1) (Gibco: 430-1700/430-1600/320-2591) with 2 g BSA/l., 2.38 g Hepes/1.50 mg PSN antibiotic mixture (Gibco Laboratories). The medium in each well was supplemented either with a sample of the novel GRF peptide or natural GRF(1-44)--NH2 at concentrations ranging from 0.8 to 200 fmol. per ml. of medium. Control wells contained no supplement. Plating was done with this medium added with 2% fetal calf serum to ensure rapid fixation of the cells. On the fourth day the cells were washed twice with the defined medium without fetal calf serum. Finally 900 μl of defined medium was added to each well plus 100 μl of the same medium containing each individual treatment, in triplicate. After 4 hours of incubation the medium was collected and diluted as required to conduct radioimmunoassay (RIAs) for rat growth hormone. […]

[2] = Rivier and Vale et al., Nature 300, 276-278 (1982); cited from earlier work

Compound: CC[C@H](C)[C@H](NC(=O)[C@H](C)NC(=O)[C@H](CC(=O)O)NC(=O)[C@H](C)NC(=O)[C@@H](N)Cc1ccc(O)cc1)C(=O)N[C@@H](Cc1ccccc1)C(=O)N[C@H](C(=O)N[C@@H](CC(N)=O)C(=O)N[C@@H](CO)C(=O)N[C@@H](Cc1ccc(O)cc1)C(=O)N[C@@H](CCCNC(=N)N)C(=O)N[C@@H](CCCCN)C(=O)N[C@H](C(=O)N[C@@H](CC(C)C)C(=O)NCC(=O)N[C@@H](CCC(N)=O)C(=O)N[C@@H](CC(C)C)C(=O)N[C@@H](CO)C(=O)N[C@@H](C)C(=O)N[C@@H](CCCNC(=N)N)C(=O)N[C@@H](CCCCN)C(=O)N[C@@H](CC(C)C)C(=O)N[C@@H](CC(C)C)C(=O)N[C@@H](CCC(N)=O)C(=O)N[C@@H](CC(=O)O)C(=O)N[C@H](C(=O)N[C@@H](CCSC)C(=O)N[C@@H](CO)C(=O)N[C@@H](CCCNC(=N)N)C(=O)N[C@@H](CCC(N)=O)C(=O)N[C@@H](CCC(N)=O)C(=O)NCC(=O)N[C@@H](CCC(=O)O)C(=O)N[C@@H](CO)C(=O)N[C@@H](CC(N)=O)C(=O)N[C@@H](CCC(N)=O)C(=O)N[C@@H](CCC(=O)O)C(=O)N[C@@H](CCCNC(=N)N)C(=O)NCC(=O)N[C@@H](C)C(=O)N[C@@H](CCCNC(=N)N)C(=O)N[C@@H](C)C(=O)N[C@@H](CCCNC(=N)N)C(=O)N[C@@H](CC(C)C)C(N)=O)[C@@H](C)CC)C(C)C)[C@@H](C)O [GRF(1-44)NH2]
- biological activity compared with natural GRF(1-44)NH2 (Salk Institute standard hGRF-NH2 (NL-A-10)) ([1]; synthetic versus natural peptide isolated from a human pancreatic tumor): identical

Compound: GRF(1-29)NH2
- intrinsic activity and potency in vitro [2]: full intrinsic activity and potency

Compound: YADAIFTNSYRKVLAQLSARKLLQDIMSR-NH2 [(Ala^15)-GRF(1-29)NH2, [Ala^15]-hGRF(1-29)-NH2]
- potency relative to GRF(1-29)NH2 (unsubstituted shortened GRF) ([1]; growth hormone release, 4 hours of incubation): 4.1 times
- potency relative to GRF (1-44)NH2 ([1]; on a weight for weight basis, growth hormone release, 4 hours of incubation): 5.1 times
